From patent publication US6407124B1, “Carbon substituted aminothiazole inhibitors of cyclin dependent kinases” (Bristol-Myers Squibb Company, priority 1998, dated 2002)

| Structure (SMILES) | melting point [°C] |
| --- | --- |
| CCOC(=O)/C=C/c1cnc(NC(C)=O)s1 [Example 1, Ethyl 3-((E)-2-acetamido-thiazol-5-yl)-acrylate] | 239 to 240 |
| CC(=O)Nc1ncc(/C=C/c2ncc(C(C)(C)C)o2)s1 [Example 2, N-[(E)-5-(2-(5-t-butyl-oxazol-2-yl)-vinyl)-thiazol-2-yl]-acetamide] | 275 |
